Experimental data as given in patent US11413278B2, “Compounds and methods for promoting stress resistance” (priority 2015, dated 2022).
Read-outs that look alike come from different tables or passages of the source.

Key:
[1] = biological target: T1, human PARP1 (Homo sapiens, UniProt P09874); test: PARP inhibitor assay (HT Fluorescent Homogeneous PARP Inhibition Assay Kit); format: biochemical; settings: for L = PARP inhibition: score
T1 construct: purchased Trevigen
How it was run: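 Human PARP1 with NAD and activated DNA, compounds at 10 μM final, 30 min at room temperature in dark. Resazurin/diaphorase cycling mix then added for 1 hr in dark before stop buffer; fluorescent homogeneous kit read-out.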

[2] = system: FOXO3; test: qPCR analysis of FOXO3-regulated genes; format: cell-based, human; settings: for fold induction at 10 µM: Homo sapiens, WI-38 cells; for K = Sestrin induction: score
How it was run: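 WI-38 cells treated with compound at 10 μM for 24 h, followed by Cells-to-Ct RT-qPCR of FOXO3 target genes normalised to B2M, PPIA and GAPDH. FOXO3 or NRF2 dependence tested by prior 10 nM siRNA knockdown (36 h transfection, compound added ~24 h after replating).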

[3] = system: NRF2; test: qPCR analysis of NRF2-regulated genes; format: cell-based, human; settings: for fold induction at 10 µM: Homo sapiens
How it was run: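 WI-38 cells treated with compound at 10 μM for 24 hrs, then processed by Cells-to-Ct for RNA isolation, RT and qPCR of NRF2-regulated genes (HMOX1, NQO1, GCLC, GSTM1). Expression normalized to B2M, PPIA and GAPDH; siRNA knockdown of FOXO3 or NRF2 (10 nM) preceded treatment in some runs.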

[4] = system: C. elegans; test: C. elegans lifespan assays (liquid and plate); format: in vivo, Caenorhabditis elegans; settings: for ILS at 60 µM / ILS at 66 µM: Caenorhabditis elegans; for O = Life span- extending scores in worms: score scale 0 to 2, 4 to 6 independent trials; for M = Lifespan-extending scores in worms: summary score
[5] = system: WI-38 cells; settings: no H2O2 stress, 10 uM; negative control 0.41% ± 0.23%
Description: WI-38 cells were seeded on 384-well plates for 24 hrs and then incubated with small molecules for 24 hrs. […] Images were collected on an INCell Analyzer 2000 (GE) and analyzed with the Developer software.

[6] = 24 hrs, n=4, qPCR normalized by B2M, read-out: DDB1 Normalized fold change
[7] = 24 hrs, n=4, qPCR normalized by B2M, read-out: GADD45A Normalized fold change
[8] = 24 hrs, n=4, qPCR normalized by B2M, read-out: SESN1 Normalized fold change
[9] = qPCR, n=4, 24 hrs, normalized by B2M, read-out: CAT Normalized fold change
[10] = qPCR, n=4, 24 hrs, normalized by B2M, read-out: SOD2 Normalized fold change
[11] = qPCR, n=4, 24 hrs, normalized by B2M, read-out: TXNIP Normalized fold change
[12] = WI-38 cells, 10 μM, 24 hrs, n=4, qPCR normalized by B2M, read-out: GCLC Normalized fold change
[13] = WI-38 cells, 10 μM, 24 hrs, n=4, qPCR normalized by B2M, read-out: GSTM1 Normalized fold change
[14] = WI-38 cells, 10 μM, 24 hrs, n=4, qPCR normalized by B2M, read-out: HMOX1 Normalized fold change
[15] = WI-38 cells, 10 μM, 24 hrs, n=4, qPCR normalized by B2M, read-out: NQO1 Normalized fold change
[16] = in liquid, wild type, with FuDR, 1.0 × 10^9 bacteria/ml, read-out: relative change of mean lifespan vs control, Trial 1
[17] = in liquid, wild type, with FuDR, 2.5 × 10^9 bacteria/ml, read-out: relative change of mean lifespan vs control, Trial 2
[18] = on plate, CF512 temperature-sensitive sterile animals, without FuDR, 2.0 × 10^10 bacteria/ml, read-out: relative change of mean lifespan vs control, Trial 3
[19] = Assay 2(z), 1.0 × 10^9 bacteria/ml, wild type + FuDR (2012 July), read-out: Lifespan assay in liquid
[20] = Assay 3(aa), 2.5 × 10^9 bacteria/ml, wild type + FuDR, read-out: Lifespan assay in liquid
[21] = Assay 4(ab), 2.0 × 10^10 bacteria/ml, CF512 worms, no FuDR, read-out: Lifespan assay on plates

T1 sequence (P09874 whole entry): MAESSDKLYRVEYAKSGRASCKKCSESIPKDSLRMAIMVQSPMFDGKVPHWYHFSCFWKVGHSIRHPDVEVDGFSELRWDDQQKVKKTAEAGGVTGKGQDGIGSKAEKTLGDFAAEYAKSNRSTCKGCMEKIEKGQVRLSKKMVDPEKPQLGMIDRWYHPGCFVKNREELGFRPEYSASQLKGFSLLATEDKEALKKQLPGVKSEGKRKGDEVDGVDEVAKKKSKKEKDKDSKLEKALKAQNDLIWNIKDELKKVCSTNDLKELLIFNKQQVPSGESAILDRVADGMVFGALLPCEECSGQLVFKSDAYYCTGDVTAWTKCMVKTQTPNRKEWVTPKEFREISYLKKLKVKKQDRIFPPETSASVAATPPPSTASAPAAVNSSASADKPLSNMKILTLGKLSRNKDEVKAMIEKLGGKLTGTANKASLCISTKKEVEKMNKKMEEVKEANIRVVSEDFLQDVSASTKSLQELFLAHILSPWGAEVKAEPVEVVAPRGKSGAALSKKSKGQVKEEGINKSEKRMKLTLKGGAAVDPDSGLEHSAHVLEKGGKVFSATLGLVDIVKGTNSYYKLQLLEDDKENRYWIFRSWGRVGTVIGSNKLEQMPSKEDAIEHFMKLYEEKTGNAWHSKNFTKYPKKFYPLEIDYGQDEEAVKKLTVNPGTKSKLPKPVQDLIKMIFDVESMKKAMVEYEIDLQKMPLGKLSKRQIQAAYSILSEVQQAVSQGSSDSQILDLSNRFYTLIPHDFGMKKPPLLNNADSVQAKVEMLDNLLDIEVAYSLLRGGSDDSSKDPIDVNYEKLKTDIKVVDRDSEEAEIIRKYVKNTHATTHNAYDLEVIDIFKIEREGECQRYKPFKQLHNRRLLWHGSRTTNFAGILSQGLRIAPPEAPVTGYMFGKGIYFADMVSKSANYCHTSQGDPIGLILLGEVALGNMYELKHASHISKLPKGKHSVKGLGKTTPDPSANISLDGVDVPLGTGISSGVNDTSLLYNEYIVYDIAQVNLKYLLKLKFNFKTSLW

In the case of `O=C1NCCCc2cc(Cl)sc21` [O1], the “Inhibition of PARP1” value ([1]; 10 μM, in vitro) was “inhibitors of PARP1”, the “L = PARP inhibition” value [1] was 1 and the “E = Potential FOXO3 Activation” value ([2]; 2-point score) was 0. The fold induction at 10 µM [2, 6] was 1.2, the fold induction at 10 µM [2, 7] was 0.853 and the fold induction at 10 µM [2, 8] was 1.18. For the same molecule, the fold induction at 10 µM [2, 9] was 1.25, the fold induction at 10 µM [2, 10] was 1.11 and the fold induction at 10 µM [2, 11] was 1.11. For the same molecule, the “K = Sestrin induction” value [2] was 0, the “E = Potential FOXO3 Activation” value ([2]; summary score) was 0 and the “F = Potential NRF2 Activation” value ([3]; 2-point score) was 0. For the same molecule, the fold induction at 10 µM [3, 12] was 1.21, the fold induction at 10 µM [3, 13] was 1.09 and the fold induction at 10 µM [3, 14] was 1.25. The fold induction at 10 µM [3, 15] was 1.08, the “F = Potential NRF2 Activation” value ([3]; summary score) was 0 and the ILS at 60 µM [4, 16] was 1.8%. The ILS at 60 µM [4, 17] was -1.7%, the ILS at 60 µM ([4]; on plate, CF512 temperature-sensitive sterile animals, without FuDR, 1.0 × 10^11 bacteria/ml, read-out: relative change of mean lifespan vs control, Trial 4) was -2.2% and the ILS at 60 µM [4, 18] was 22.1%. For the same molecule, the ILS at 66 µM [4, 19] was 1.8%, the ILS at 66 µM [4, 20] was -1.7% and the ILS at 66 µM [4, 21] was 22.1%. For the same molecule, the ILS at 66 µM ([4]; Assay 5(ac), 1.0 × 10^11 bacteria/ml, CF512 worms, no FuDR, read-out: Lifespan assay on plates) was -2.2%, the “O = Life span- extending scores in worms” value [4] was 0 and the “M = Lifespan-extending scores in worms” value [4] was 0. For the same molecule, the “Percentage of propidium iodide-positive dead cells (no H2O2 stress treatment), at 10 uM” value [5] was 0.30% ± 0.13%,.

`CC1C(=O)C(C)C(c2cc(Cl)ccc2O)NC1c1cc(Cl)ccc1O` (centres unmarked) [O6] was tested, and the “L = PARP inhibition” value [1] was 0, the “E = Potential FOXO3 Activation” value ([2]; 2-point score) was 0 and the fold induction at 10 µM [2, 6] was 0.988. The fold induction at 10 µM [2, 7] was 0.881, the fold induction at 10 µM [2, 8] was 1.06 and the fold induction at 10 µM [2, 9] was 0.919. For the same molecule, the fold induction at 10 µM [2, 10] was 0.932, the fold induction at 10 µM [2, 11] was 1.01 and the “K = Sestrin induction” value [2] was 0. For the same molecule, the “E = Potential FOXO3 Activation” value ([2]; summary score) was 0, the “F = Potential NRF2 Activation” value ([3]; 2-point score) was 2 and the “Potential NRF2 Activation (>=2 target genes induced, by >=1.5-fold)” value ([3]; Assay 13(p)) was “YES”. The fold induction at 10 µM ([3]; 24 h, Assay 12(o), at 10 uM, qPCR, read-out: Induction of NRF2-regulated genes: HMOX1 normalized fold-change) was 3.85, the fold induction at 10 µM ([3]; 24 h, Assay 12(o), at 10 uM, qPCR, read-out: Induction of NRF2-regulated genes: NQO1 normalized fold-change) was 1.62 and the fold induction at 10 µM ([3]; rounded fold change, WI-38 cells, 10 μM, 24 hrs (RP11 for Gr-1D, RP29 for Gr-4D), read-out: Summary of effects on NRF2-regulated genes: HMOX1) was 3.85. The fold induction at 10 µM ([3]; rounded fold change, WI-38 cells, 10 μM, 24 hrs (RP29 for Gr-4D), read-out: Summary of effects on NRF2-regulated genes: NQO1) was 1.62, the fold induction at 10 µM ([3]; 10 μM, 24 hrs, WI-38, read-out: Expression of at least two NRF2 target genes) was greater than 1.5 and the fold induction at 10 µM ([3]; 10 μM, 24 hrs, WI-38 cells, qPCR, normalized to B2M, n = 4, read-out: HMOX1 expression, normalized fold change (NRF2-regulated gene)) was 3.85. For the same molecule, the fold induction at 10 µM ([3]; 10 μM, 24 hrs, WI-38 cells, qPCR, normalized to B2M, n = 4, read-out: NQO1 expression, normalized fold change (NRF2-regulated gene)) was 1.62, the fold induction at 10 µM [3, 12] was 1.06 and the fold induction at 10 µM [3, 13] was 0.965. The fold induction at 10 µM [3, 14] was 3.85, the fold induction at 10 µM [3, 15] was 1.62 and the “F = Potential NRF2 Activation” value ([3]; summary score) was 2. For the same molecule, the ILS at 60 µM [4, 16] was 28.3%, the ILS at 60 µM [4, 17] was 10.3% and the ILS at 60 µM [4, 18] was 3.9%. It also gave an ILS at 66 µM [4, 19] of 28.3%, an ILS at 66 µM [4, 20] of 10.3% and an ILS at 66 µM [4, 21] of 3.9%. For the same molecule, the “O = Life span- extending scores in worms” value [4] was 1 (1 for lifespan extension observed in 2 trials), the “M = Lifespan-extending scores in worms” value [4] was 1 (1 for lifespan extension observed in 2 trials) and the “Percentage of propidium iodide-positive dead cells (no H2O2 stress treatment), at 10 uM” value [5] was 0.36% ± 0.10%,.

For `O=C(Nc1nc(C23CC4CC(CC(C4)C2)C3)cs1)C(c1ccccc1)c1ccccc1` [O10], the “L = PARP inhibition” value [1] was 0, the “E = Potential FOXO3 Activation” value ([2]; 2-point score) was 0 and the fold induction at 10 µM [2, 6] was 0.906. The fold induction at 10 µM [2, 7] was 1.19, the fold induction at 10 µM [2, 8] was 0.983 and the fold induction at 10 µM [2, 9] was 0.892. The fold induction at 10 µM [2, 10] was 0.912, the fold induction at 10 µM [2, 11] was 0.731 and the “K = Sestrin induction” value [2] was 0. The “E = Potential FOXO3 Activation” value ([2]; summary score) was 0, the “F = Potential NRF2 Activation” value ([3]; 2-point score) was 0 and the fold induction at 10 µM [3, 12] was 0.933. The fold induction at 10 µM [3, 13] was 1.03, the fold induction at 10 µM [3, 14] was 0.755 and the fold induction at 10 µM [3, 15] was 0.937. The “F = Potential NRF2 Activation” value ([3]; summary score) was 0, the ILS at 60 µM [4, 16] was 5.9% and the ILS at 60 µM [4, 17] was -6.2%. The ILS at 60 µM [4, 18] was 9.5%, the ILS at 66 µM [4, 19] was 5.9% and the ILS at 66 µM [4, 20] was -6.2%. The ILS at 66 µM [4, 21] was 9.5%, the “O = Life span- extending scores in worms” value [4] was 0 and the “M = Lifespan-extending scores in worms” value [4] was 0. The “Percentage of propidium iodide-positive dead cells (no H2O2 stress treatment), at 10 uM” value [5] was 0.54% ± 0.16%,.
